Measurements reported in patent publication US20100248255A1, “NOVEL PEPTIDES” (KYOWA HAKKO KOGYO CO., LTD, priority 2005, published 2010).
Entries after “also recorded” stand apart in the source; their conditions may differ. Like-named read-outs stand apart in the source and are kept apart here. No end group written: not given here.

Tests used:
[1] = tested on: vascular cells of the apoaequorin-expressing mice; settings: final concentration of 1 μmol/L; reported in WO02/010371; cited from earlier work
[2] = tested on: uterus; settings: final concentration of 1 μmol/L; reported in WO02/010371; cited from earlier work
[3] = tested on: antiserum (rabbit, Peptide 7-KLH conjugate as antigen); assay: Binding specificity of antiserum by competitive RIA with [125I]-labeled Peptide 1
Method: As controls, reactions that use RIA buffer instead of the antiserum to measure non-specific binding, and reactions […] that use RIA buffer instead of VGF-derived peptide solutions to measure the maximum binding level were carried out. Reactions for non-specific binding were performed in quadruplicates, and the other reactions were performed in duplicates, and for each of the reactants, the immune complex was precipitated as in the above-mentioned antibody titer measurements, and its radioactivity (cpm) was measured. The average radioactivity of non-specific binding reaction is defined as non-specific binding level N, the radioactivity value for each VGF-derived peptide addition reaction is defined as Y, and the radioactivity value of maximum binding reaction is defined as Z. The percentage ratio (B/B0) of antiserum specific binding level (B) with peptide addition to the maximum binding level (B0), was determined using the following formula.
B/B0 (%)={(Y−N)/(Z−N)}×100
Accordingly, the amount of peptide that achieves 50% B/B0, more specifically, the amount of peptide that yields 50% inhibition of the maximum binding level, was used as an indicator of the peptide binding activity to the antiserum.
The amounts of peptide/tube used for performing the measurements were 0.5, 1, 2, 4, 8, 16, 32, 64, 128, 256, 512 and 1024 fmol for Peptide 1; 1, 2, 4, 8, 16, 32, 64, 128, 256, 512 and 1024 fmol for Peptide 2; 1, 3.3, 10, 33, 100, 333, 1000, 3300, 10,000, 33,000, 100,000, 333,000 and 1,000,000 fmol for Peptide 3; and 1,000, 10,000, 100,000 and 1,000,000 fmol for Peptide 8.

[4] = tested on: adrenal gland; settings: final concentration of 1 μmol/L; reported in WO02/010371; cited from earlier work
[5] = tested on: bone; assay: Aequorin luminescence, bone of apoaequorin-expressing mice; assay type: cell-based, mouse; settings: organ pieces, peptide final concentrations of 1 μmol/L and of 5 μmol/L
Description: (§1) Whether Peptides 1 to 5, 9 and 10 synthesized in Example 2 have the activity of increasing intracellular calcium ion concentration was investigated using the organs of transgenic mice introduced with the apoaequorin gene and systemically expressing apoaequorin (hereinafter referred to as apoaequorin-expressing mice). In apoaequorin-expressing mouse cells, light is emitted when apoaequorin binds to a calcium ion in the presence of the luminescent substrate coelenterazine and thus the intracellular calcium ion concentration can be monitored. Patent Document (WO02/010371) discloses the method for producing apoaequorin-expressing mice, method for evaluating biologically active substances that use biological samples derived from the mice, and experimental results of evaluating biologically active peptides using the mouse organs as shown below. […]
(§2) Apoaequorin-expressing mice were produced according to the method disclosed in Reference Example 4 of Patent Document (WO02/010371). […] After culturing, RPMI 1640 medium was added, and then Peptides 1 to 5, 9 and 10 dissolved in RPMI 1640 medium were added 25 seconds after the addition of RPMI 1640 until each peptide had final concentrations of 1 μmol/L and of 5 μmol/L, and the relative luminescence levels were measured every second immediately after the addition of RPMI 1640 medium by using a luminometer (AutoLumat LB953, manufactured by Berthold).

[6] = tested on: vascular cells of the apoaequorin-expressing mice; assay: Intracellular calcium ion increase (aequorin luminescence), blood vessel of apoaequorin-expressing mice; assay type: cell-based, mouse; settings: for luminescence in the blood vessel: organ pieces, peptide final concentrations of 1 μmol/L and of 5 μmol/L
Method: (§3) A heart or blood vessel is collected from transgenic mice systemically expressing apoaequorin (WO02/010371) produced by introducing an apoaequorin gene expression vector into fertilized eggs. The obtained heart or blood vessel is cut finely into pieces, suspended in a medium containing coelenterazine, and then incubated to incorporate coelenterazine into the cells to form aequorin (a complex of apoaequorin and coelenterazine). Since aequorin luminesces upon binding to intracellular calcium ions, the relative luminescence level in cells before and after addition of a medium containing the peptide or a pharmaceutically acceptable salt thereof is measured in a luminometer every second over time and is used as an indicator of intracellular calcium ion concentration. Increase in the relative luminescence level due to addition of the peptide or pharmaceutically acceptable salt thereof confirms that the peptide or pharmaceutically acceptable salt thereof has the activity to increase intracellular calcium ion concentration.
(§4) Whether Peptides 1 to 5, 9 and 10 synthesized in Example 2 have the activity of increasing intracellular calcium ion concentration was investigated using the organs of transgenic mice introduced with the apoaequorin gene and systemically expressing apoaequorin (hereinafter referred to as apoaequorin-expressing mice). In apoaequorin-expressing mouse cells, light is emitted when apoaequorin binds to a calcium ion in the presence of the luminescent substrate coelenterazine and thus the intracellular calcium ion concentration can be monitored. Patent Document (WO02/010371) discloses the method for producing apoaequorin-expressing mice, method for evaluating biologically active substances that use biological samples derived from the mice, and experimental results of evaluating biologically active peptides using the mouse organs as shown below. […] Therefore, apoaequorin-expressing mice can be used in the evaluation of the physiological activities of novel peptides.
(§5) Apoaequorin-expressing mice were produced according to the method disclosed in Reference Example 4 of Patent Document (WO02/010371). The apoaequorin-expressing mice were sacrificed, individual organs including thymus, spleen, bone, blood vessel, heart, kidney, adrenal gland, pancreas, pituitary gland, and uterus, were removed; and each of the organs was cut into small cubes of approximately 1 to 2 mm^3. Next, in 5-mL tubes (Rohren-Tubes; manufactured by Sarstedt, No. 55.476), three portions of each of the prepared organs were added to 50 μL of a 10 μmol/L solution of coelenterazine (manufactured by Molecular Probes) dissolved in RPMI 1640 medium, and these were cultured at 37° C. for three hours. After culturing, RPMI 1640 medium was added, and then Peptides 1 to 5, 9 and 10 dissolved in RPMI 1640 medium were added 25 seconds after the addition of RPMI 1640 until each peptide had final concentrations of 1 μmol/L and of 5 μmol/L, and the relative luminescence levels were measured every second immediately after the addition of RPMI 1640 medium by using a luminometer (AutoLumat LB953, manufactured by Berthold).

[7] = tested on: thymus; assay: Aequorin luminescence, thymus of apoaequorin-expressing mice; assay type: cell-based, mouse; settings: organ pieces, peptide final concentrations of 1 μmol/L and of 5 μmol/L
Description: as §4, §5

[8] = tested on: uterus; assay: Aequorin luminescence, uterus of apoaequorin-expressing mice; assay type: cell-based, mouse; settings: organ pieces, peptide final concentrations of 1 μmol/L and of 5 μmol/L
Description: as §4, §5

[9] = tested on: cardiac cells of the apoaequorin-expressing mice; assay: Intracellular calcium ion increase (aequorin luminescence), heart of apoaequorin-expressing mice; assay type: cell-based, mouse; settings: for intracellular calcium concentration in cardiac cells (RLU per second): 1 μmol/L of peptide, added at 25 seconds; for luminescence in the heart: organ pieces, peptide final concentrations of 1 μmol/L and of 5 μmol/L
Method: as §3, §4, §5

[10] = tested on: spleen; assay: Aequorin luminescence, spleen of apoaequorin-expressing mice; assay type: cell-based, mouse; settings: organ pieces, peptide final concentrations of 1 μmol/L and of 5 μmol/L
Description: as §4, §5

[11] = Effect on rat blood pressure (anesthetized rats, bolus injection); assay type: in vivo; settings: 300 nmol in saline, bolus injection into external jugular vein, anesthetized male Wistar rats
Method: Catheters are inserted into the external jugular vein and internal carotid artery of an anesthetized animal such as rat or the like, and arterial pressure is measured continuously by connecting the catheter in the internal carotid artery to a blood pressure monitor. The peptide or pharmaceutically acceptable salt dissolved in physiological saline is administered through the external jugular vein.
Wistar rats (male, 10-weeks old, 250 to 300 g) were anesthetized by intraperitoneally administering Pentobarbital at 50 mg/kg body weight. Catheters were inserted into the external jugular vein and internal carotid artery of the anesthetized rats; the catheter in the internal carotid artery was connected to a blood pressure monitor; 300 nmol of Peptide 2 dissolved in saline (100 μL) was administered from the external jugular vein by bolus injection; and blood pressure was measured continuously.

[12] = tested on: adrenal gland; assay: Aequorin luminescence, adrenal gland of apoaequorin-expressing mice; assay type: cell-based, mouse; settings: organ pieces, peptide final concentrations of 1 μmol/L and of 5 μmol/L
Description: as §1, §2

[13] = tested on: pituitary gland; assay: Aequorin luminescence, pituitary gland of apoaequorin-expressing mice; assay type: cell-based, mouse; settings: organ pieces, peptide final concentrations of 1 μmol/L and of 5 μmol/L
Description: as §4, §5

[14] = tested on: kidney; assay: Aequorin luminescence, kidney of apoaequorin-expressing mice; assay type: cell-based, mouse; settings: organ pieces, peptide final concentrations of 1 μmol/L and of 5 μmol/L
Description: as §1, §2

[15] = VGF-derived peptides, sequentially diluted

Row | Substance | luminescence in the blood vessels [1] | luminescence in the uterus [2] | inhibition of antiserum binding to [125I]-labeled Peptide 1 ([3]; non-VGF peptides at 1, 10, and 100 pmol) | luminescence in the adrenal glands [4] | luminescence in the bone [5] | inhibition of antiserum binding to [125I]-labeled Peptide 1 [3, 15] | intracellular calcium concentration in vascular cells (RLU per second) ([6]; 5 μmol/L of peptide, added at 25 seconds) | luminescence in the blood vessel [6] | luminescence in the thymus [7] | luminescence in the uterus [8] | intracellular calcium concentration in cardiac cells (RLU per second) [9] | luminescence in the heart [9] | luminescence in the spleen [10] | change in average arterial blood pressure [11] | antiserum binding relative to the Peptide 1 binding ([3]; fraction of the Peptide 1 binding) | amount required to show the same degree of inhibition as Peptides 1 and 2 ([3]; relative to Peptides 1 and 2) | luminescence in the adrenal gland [12] | luminescence in the pituitary gland [13] | luminescence in the kidney [14]
1 | angiotensin II (DRVYIHPF) [non-VGF peptide] | strong luminescence was observed | strong luminescence was observed | none of the peptides showed inhibition | strong luminescence was observed | – | – | – | – | – | – | – | – | – | – | – | – | – | – | –
2 | Peptide 2: positions 554 to 577 of human VGF (SEQ ID NO: 3) with C-terminal amide (TLQPPSALRRRHYHHALPPSRHYP-NH2) | – | – | – | – | luminescence was observed | same degree of quantity-dependent inhibition | increase of intracellular calcium concentration | luminescence was observed | luminescence was observed | luminescence was observed | increase of intracellular calcium concentration | luminescence was observed | luminescence was observed | obvious increase in blood pressure; also recorded: increase of blood pressure | – | – | – | – | –
3 | Peptide 3: positions 554 to 583 of the amino acid sequence of human VGF, termini unmodified (H-TLQPPSALRRRHYHHALPPSRHYPGREAQA-OH) | – | – | – | – | luminescence was observed | dose-dependent inhibition of antiserum binding but the inhibition was weak | – | luminescence was observed | luminescence was observed | luminescence was observed | increase of intracellular calcium concentration | luminescence was observed | luminescence was observed | – | 1/10000 | approximately 10,000 folds | luminescence was observed | luminescence was observed | luminescence was observed
